ChEMBL document CHEMBL3396981, “Synthesis and in vitro biological evaluation of 2-(phenylcarbamoyl)phenyl 4-substituted benzoates” (Bioorg Med Chem, 2015)
Values after ≈ are worked out from the molar mass of the structure shown. Active and inactive are the calls of the source. No cut-off for these calls is given here.

Key:
Candida tropicalis = assay: Antifungal activity against Candida tropicalis 156 after 24 to 48 hrs by broth dilution method; type: functional, organism-based
Mycobacterium kansasii [1] = assay: Antimycobacterial activity against Mycobacterium kansasii 6509/96 after 21 days by microdilution method; type: functional; conditions: 6509/96, 504 h
Mycobacterium avium [2] = assay: Antimycobacterial activity against INH,RIF,OFX,EMB-resistant Mycobacterium avium 330/88 after 14 days by microdilution method; type: functional; conditions: 330/88, 336 h
Mycobacterium kansasii [3] = assay: Antimycobacterial activity against Mycobacterium kansasii 235/80 after 21 days by microdilution method; type: functional; conditions: 235/80, 504 h
[4] = Selectivity index, ratio of IC50 for human HepG2 cells to MIC for atypical mycobacteria
Mycobacterium kansasii [5] = assay: Antimycobacterial activity against Mycobacterium kansasii 6509/96 after 14 days by microdilution method; type: functional; conditions: 6509/96, 336 h
[6] = system: Trichophyton mentagrophytes; assay: Antifungal activity against Trichophyton mentagrophytes 445 after 24 to 48 hrs by broth dilution method; type: functional, organism-based
[7] = system: Mycobacterium tuberculosis; assay: Antimycobacterial activity against Mycobacterium tuberculosis H37Rv 331/88 after 14 days by microdilution method; type: functional; conditions: H37Rv 331/88, 336 h
HepG2 [8] = assay: Cytotoxicity against human HepG2 cells after 72 hrs by MTT assay; type: cell-based; conditions: HepG2, 72 h
Pichia kudriavzevii = assay: Antifungal activity against Candida krusei E28 after 24 to 48 hrs by broth dilution method; type: functional, organism-based
Trichosporon asahii [9] = assay: Antifungal activity against Trichosporon asahii 1188 after 24 hrs by broth microdilution method; type: functional; conditions: Trichosporon asahii, 1188, 24 h
[10] = system: Mycobacterium tuberculosis; assay: Antimycobacterial activity against Mycobacterium tuberculosis H37Rv 331/88 after 21 days by microdilution method; type: functional; conditions: H37Rv 331/88, 504 h
Staphylococcus aureus [11] = assay: Antibacterial activity against Staphylococcus aureus CCM 4516/08 after 24 hrs by broth microdilution method; type: functional; conditions: CCM 4516/08, 24 h
Trichosporon asahii [12] = assay: Antifungal activity against Trichosporon asahii 1188 after 48 hrs by broth microdilution method; type: functional; conditions: Trichosporon asahii, 1188, 48 h
[13] = Selectivity index, ratio of IC50 for human HepG2 cells to MIC for Mycobacterium tuberculosis; type: toxicity, cell-based; conditions: read-out: Selectivity Index
Enterococcus sp. [14] = assay: Antibacterial activity against Enterococcus sp. J 14365/08 after 24 hrs by broth microdilution method; type: functional; conditions: J 14365/08, 24 h
Mycobacterium avium [15] = assay: Antimycobacterial activity against INH,RIF,OFX,EMB-resistant Mycobacterium avium 330/88 after 21 days by microdilution method; type: functional; conditions: 330/88, 504 h
Mycobacterium kansasii [16] = assay: Antimycobacterial activity against Mycobacterium kansasii 235/80 after 7 days by microdilution method; type: functional; conditions: 235/80, 168 h
Staphylococcus aureus [17] = assay: Antibacterial activity against methicillin-resistant Staphylococcus aureus H 5996/08 after 24 hrs by broth microdilution method; type: functional; conditions: H 5996/08, 24 h
Enterococcus sp. [18] = assay: Antibacterial activity against Enterococcus sp. J 14365/08 after 48 hrs by broth microdilution method; type: functional; conditions: J 14365/08, 48 h
[19] = Selectivity index, ratio of IC50 for human HepG2 cells to MIC for Staphylococci
HepG2 [20] = assay: Cytostatic activity against human HepG2 cells after 72 hrs by MTT assay; type: functional, cell-based; conditions: HepG2, 72 h
[21] = system: Staphylococcus epidermidis; assay: Antibacterial activity against Staphylococcus epidermidis H 6966/08 after 24 hrs by broth microdilution method; type: functional; conditions: H 6966/08, 24 h
Aspergillus fumigatus = assay: Antifungal activity against Aspergillus fumigatus 231 after 24 to 48 hrs by broth dilution method; type: functional, organism-based
Nakaseomyces glabratus = assay: Antifungal activity against Candida glabrata 20/I after 24 to 48 hrs by broth dilution method; type: functional, organism-based
Staphylococcus aureus [22] = assay: Antibacterial activity against Staphylococcus aureus CCM 4516/08 after 48 hrs by broth microdilution method; type: functional; conditions: CCM 4516/08, 48 h
Lichtheimia corymbifera = assay: Antifungal activity against Absidia corymbifera 272 after 24 to 48 hrs by broth dilution method; type: functional, organism-based
Mycobacterium kansasii [23] = assay: Antimycobacterial activity against Mycobacterium kansasii 235/80 after 14 days by microdilution method; type: functional; conditions: 235/80, 336 h
Staphylococcus aureus [24] = assay: Antibacterial activity against methicillin-resistant Staphylococcus aureus H 5996/08 after 48 hrs by broth microdilution method; type: functional; conditions: H 5996/08, 48 h
Mycobacterium kansasii [25] = assay: Antimycobacterial activity against Mycobacterium kansasii 6509/96 after 7 days by microdilution method; type: functional; conditions: 6509/96, 168 h
Candida albicans = assay: Antifungal activity against Candida albicans ATCC 44859 after 24 to 48 hrs by broth dilution method; type: functional, organism-based
[26] = system: Staphylococcus epidermidis; assay: Antibacterial activity against Staphylococcus epidermidis H 6966/08 after 48 hrs by broth microdilution method; type: functional; conditions: H 6966/08, 48 h
[27] = Selectivity index, ratio of IC50 for human HepG2 cells to MIC for Staphylococcus aureus CCM 4516/08
in vitro = conditions: human, HepG2 cells
Description: Selectivity index, ratio of IC50 for human HepG2 cells to MIC for Mycobacterium kansasii 6509/96

## O=C(Oc1ccc(Cl)cc1C(=O)Nc1ccc(Cl)c(Cl)c1)c1ccc([N+](=O)[O-])cc1
Candida tropicalis
  Activity: inactive
Mycobacterium kansasii [1]
  MIC: 4 µM (≈ 1.86 µg/mL)
Mycobacterium avium [2]
  MIC: 8 µM (≈ 3.73 µg/mL)
Mycobacterium kansasii [3]
  MIC: 4 µM (≈ 1.86 µg/mL)
[4]
  Selectivity Index: >6.25
Mycobacterium kansasii [5]
  MIC: 4 µM (≈ 1.86 µg/mL)
[6]
  Activity: inactive
[7]
  MIC: 0.5 µM (≈ 0.233 µg/mL)
HepG2 [8]
  IC50: > 50 µM
Pichia kudriavzevii
  Activity: inactive
Trichosporon asahii [9]
  MIC: 31.2 µM (≈ 14.6 µg/mL)
[10]
  MIC: 1 µM (≈ 0.466 µg/mL)
Staphylococcus aureus [11]
  MIC: 0.49 µM (≈ 0.228 µg/mL)
Trichosporon asahii [12]
  MIC: > 125 µM
[13]
  selectivity ratio: > 50
Enterococcus sp. [14]
  MIC: 62.5 µM (≈ 29.1 µg/mL)
Mycobacterium avium [15]
  MIC: 8 µM (≈ 3.73 µg/mL)
Mycobacterium kansasii [16]
  MIC: 2 µM (≈ 0.931 µg/mL)
Staphylococcus aureus [17]
  MIC: 0.49 µM (≈ 0.228 µg/mL)
Enterococcus sp. [18]
  MIC: > 125 µM
[19]
  Selectivity Index: >102
HepG2 [20]
  IC50: 3.55 µM
[21]
  MIC: 0.49 µM (≈ 0.228 µg/mL)
Aspergillus fumigatus
  Activity: inactive
Nakaseomyces glabratus
  Activity: inactive
Staphylococcus aureus [22]
  MIC: 0.49 µM (≈ 0.228 µg/mL)
Lichtheimia corymbifera
  Activity: inactive
Mycobacterium kansasii [23]
  MIC: 4 µM (≈ 1.86 µg/mL)
Staphylococcus aureus [24]
  MIC: 0.49 µM (≈ 0.228 µg/mL)
Mycobacterium kansasii [25]
  MIC: 2 µM (≈ 0.931 µg/mL)
Candida albicans
  Activity: inactive
[26]
  MIC: 0.49 µM (≈ 0.228 µg/mL)

## O=C(Oc1ccc(Cl)cc1C(=O)Nc1ccc(Cl)c(Cl)c1)c1ccc(Br)cc1
Candida tropicalis
  Activity: inactive
Mycobacterium kansasii [1]
  MIC: 4 µM (≈ 2 µg/mL)
Mycobacterium avium [2]
  MIC: 8 µM (≈ 4 µg/mL)
Mycobacterium kansasii [3]
  MIC: 4 µM (≈ 2 µg/mL)
[4]
  Selectivity Index: >6.25
Mycobacterium kansasii [5]
  MIC: 4 µM (≈ 2 µg/mL)
[6]
  Activity: inactive
[7]
  MIC: 1 µM (≈ 0.5 µg/mL)
HepG2 [8]
  IC50: > 50 µM
Pichia kudriavzevii
  Activity: inactive
Trichosporon asahii [9]
  MIC: 500 µM (≈ 250 µg/mL)
[10]
  MIC: 1 µM (≈ 0.5 µg/mL)
Staphylococcus aureus [11]
  MIC: 0.49 µM (≈ 0.245 µg/mL)
Trichosporon asahii [12]
  MIC: > 500 µM
[13]
  selectivity ratio: > 50
Enterococcus sp. [14]
  MIC: 31.2 µM (≈ 15.6 µg/mL)
Mycobacterium avium [15]
  MIC: 8 µM (≈ 4 µg/mL)
Mycobacterium kansasii [16]
  MIC: 2 µM (≈ 0.999 µg/mL)
Staphylococcus aureus [17]
  MIC: 0.49 µM (≈ 0.245 µg/mL)
Enterococcus sp. [18]
  MIC: 500 µM (≈ 250 µg/mL)
[19]
  Selectivity Index: >102
HepG2 [20]
  IC50: 2.5 µM
[21]
  MIC: 0.49 µM (≈ 0.245 µg/mL)
Aspergillus fumigatus
  Activity: inactive
Nakaseomyces glabratus
  Activity: inactive
Staphylococcus aureus [22]
  MIC: 0.49 µM (≈ 0.245 µg/mL)
Lichtheimia corymbifera
  Activity: inactive
Mycobacterium kansasii [23]
  MIC: 4 µM (≈ 2 µg/mL)
Staphylococcus aureus [24]
  MIC: 0.49 µM (≈ 0.245 µg/mL)
Mycobacterium kansasii [25]
  MIC: 1 µM (≈ 0.5 µg/mL)
Candida albicans
  Activity: inactive
[26]
  MIC: 0.49 µM (≈ 0.245 µg/mL)

## CC1(C)S[C@@H]2[C@H](NC(=O)Cc3ccccc3)C(=O)N2[C@H]1C(=O)O [PENICILLIN G]
HepG2 [8]
  IC50: > 10000 µM
[27]
  Selectivity Index: >10204
Staphylococcus aureus [11]
  MIC: 0.98 µM (≈ 0.328 µg/mL)
Enterococcus sp. [14]
  MIC: 7.81 µM (≈ 2.61 µg/mL)
Staphylococcus aureus [17]
  MIC: 62.5 µM (≈ 20.9 µg/mL)
Enterococcus sp. [18]
  MIC: 15.6 µM (≈ 5.22 µg/mL)
[21]
  MIC: 250 µM (≈ 83.6 µg/mL)
Staphylococcus aureus [22]
  MIC: 0.98 µM (≈ 0.328 µg/mL)
Staphylococcus aureus [24]
  MIC: 125 µM (≈ 41.8 µg/mL)
[26]
  MIC: 250 µM (≈ 83.6 µg/mL)

## NNC(=O)c1ccncc1 [ISONIAZID]
Mycobacterium kansasii [1]
  MIC: 4 µM (≈ 0.549 µg/mL)
Mycobacterium avium [2]
  MIC: > 250 µM
Mycobacterium kansasii [3]
  MIC: > 250 µM
Mycobacterium kansasii [5]
  MIC: 4 µM (≈ 0.549 µg/mL)
[7]
  MIC: 0.5 µM (≈ 0.0686 µg/mL)
HepG2 [8]
  IC50: > 250 µM
[10]
  MIC: 0.5 µM (≈ 0.0686 µg/mL)
[13]
  selectivity ratio: > 250
In vitro
  selectivity ratio: ≥ 31.3
Mycobacterium avium [15]
  MIC: > 250 µM
Mycobacterium kansasii [16]
  MIC: > 250 µM
Mycobacterium kansasii [23]
  MIC: > 250 µM
Mycobacterium kansasii [25]
  MIC: 2 µM (≈ 0.274 µg/mL)
